tested on: MFM-223; test: normalised response (% of control), CellTiter-Glo; higher = more viable cells (100 = DMSO, 0 = benzethonium chloride kill control); conditions: incubation time: 72 h
Procedure: (§1)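 DSRT, 72 h incubation, CellTox Green / CellTiter-Glo readout. Signal is normalised to DMSO and benzethonium chloride controls. Value is the normalised response at the highest dose.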

`CC(=O)c1c(C)c2cnc(Nc3ccc(N4CCNCC4)cn3)nc2n(C2CCCC2)c1=O` [Palbociclib] (10000 nM) was tested, and the normalised response was 65.9%.

tested on: CAL-85-1; test: as above; conditions: incubation time: 72 h
Procedure: as §1

Compared with `CC1(C)CCC(CN2CCN(c3ccc(C(=O)NS(=O)(=O)c4ccc(NCC5CCOCC5)c([N+](=O)[O-])c4)c(Oc4cnc5[nH]ccc5c4)c3)CC2)=C(c2ccc(Cl)cc2)C1` [ABT-199] (10000 nM), `CC(=O)c1c(C)c2cnc(Nc3ccc(N4CCNCC4)cn3)nc2n(C2CCCC2)c1=O` [Palbociclib] (10000 nM) is lower in normalised response: 97.8% for the first, 70.4% for the second.

Compared with `CC(=O)N(O)CCCCCNC(=O)CCC(=O)N(O)CCCCCNC(=O)CCC(=O)N(O)CCCCCN` [Deferoxamine] (10000 nM), `C[C@]12CC[C@@H]3c4ccc(OC(=O)N(CCCl)CCCl)cc4CC[C@H]3[C@@H]1CC[C@@H]2O` [Estramustine] (10000 nM) is higher in normalised response: 78.8% for the first, 94.2% for the second.

Going from `C[C@]1(O)C[C@@H](c2nc(-c3ccc4ccc(-c5ccccc5)nc4c3)c3c(N)nccn32)C1` [Linsitinib] (10000 nM) to `Cc1ccc([N+](=O)[O-])cc1S(=O)(=O)N(C)/N=C/c1cnc2ccc(Br)cn12` [PIK-75] (10000 nM), the normalised response falls from 69.6% to 7.97%.

tested on: Hs578T; test: as above; conditions: incubation time: 72 h
Procedure: as §1

Going from `CC1(C)CCC(CN2CCN(c3ccc(C(=O)NS(=O)(=O)c4ccc(NCC5CCOCC5)c([N+](=O)[O-])c4)c(Oc4cnc5[nH]ccc5c4)c3)CC2)=C(c2ccc(Cl)cc2)C1` [ABT-199] (10000 nM) to `CC(=O)c1c(C)c2cnc(Nc3ccc(N4CCNCC4)cn3)nc2n(C2CCCC2)c1=O` [Palbociclib] (10000 nM), the normalised response falls from 90.5% to 86.9%.

First: CC(=O)N(O)CCCCCNC(=O)CCC(=O)N(O)CCCCCNC(=O)CCC(=O)N(O)CCCCCN [Deferoxamine] (10000 nM)
Second: C[C@]12CC[C@@H]3c4ccc(OC(=O)N(CCCl)CCCl)cc4CC[C@H]3[C@@H]1CC[C@@H]2O [Estramustine] (10000 nM)
The normalised response of the first is lower: 62% for the first, 92.7% for the second.

First: C[C@]1(O)C[C@@H](c2nc(-c3ccc4ccc(-c5ccccc5)nc4c3)c3c(N)nccn32)C1 [Linsitinib] (10000 nM)
Second: Cc1ccc([N+](=O)[O-])cc1S(=O)(=O)N(C)/N=C/c1cnc2ccc(Br)cn12 [PIK-75] (10000 nM)
The normalised response of the first is higher: 91.9% for the first, 0.96% for the second.

tested on: BT-549; test: as above; conditions: incubation time: 72 h
Procedure: as §1

Going from `CC1(C)CCC(CN2CCN(c3ccc(C(=O)NS(=O)(=O)c4ccc(NCC5CCOCC5)c([N+](=O)[O-])c4)c(Oc4cnc5[nH]ccc5c4)c3)CC2)=C(c2ccc(Cl)cc2)C1` [ABT-199] (10000 nM) to `CC(=O)c1c(C)c2cnc(Nc3ccc(N4CCNCC4)cn3)nc2n(C2CCCC2)c1=O` [Palbociclib] (10000 nM), the normalised response falls from 91.4% to 79.3%.

First: CC(=O)N(O)CCCCCNC(=O)CCC(=O)N(O)CCCCCNC(=O)CCC(=O)N(O)CCCCCN [Deferoxamine] (10000 nM)
Second: C[C@]12CC[C@@H]3c4ccc(OC(=O)N(CCCl)CCCl)cc4CC[C@H]3[C@@H]1CC[C@@H]2O [Estramustine] (10000 nM)
The normalised response of the first is lower: 54.5% for the first, 106% for the second.

First: C[C@]1(O)C[C@@H](c2nc(-c3ccc4ccc(-c5ccccc5)nc4c3)c3c(N)nccn32)C1 [Linsitinib] (10000 nM)
Second: Cc1ccc([N+](=O)[O-])cc1S(=O)(=O)N(C)/N=C/c1cnc2ccc(Br)cn12 [PIK-75] (10000 nM)
The normalised response of the first is higher: 76% for the first, 1.57% for the second.

tested on: MDA-MB-468; test: as above; conditions: incubation time: 72 h
Procedure: as §1

Going from `CC1(C)CCC(CN2CCN(c3ccc(C(=O)NS(=O)(=O)c4ccc(NCC5CCOCC5)c([N+](=O)[O-])c4)c(Oc4cnc5[nH]ccc5c4)c3)CC2)=C(c2ccc(Cl)cc2)C1` [ABT-199] (10000 nM) to `CC(=O)c1c(C)c2cnc(Nc3ccc(N4CCNCC4)cn3)nc2n(C2CCCC2)c1=O` [Palbociclib] (10000 nM), the normalised response falls from 85.9% to 68.2%.

Compared with `CC(=O)N(O)CCCCCNC(=O)CCC(=O)N(O)CCCCCNC(=O)CCC(=O)N(O)CCCCCN` [Deferoxamine] (10000 nM), `C[C@]12CC[C@@H]3c4ccc(OC(=O)N(CCCl)CCCl)cc4CC[C@H]3[C@@H]1CC[C@@H]2O` [Estramustine] (10000 nM) is higher in normalised response: 37.7% for the first, 87.7% for the second.

Going from `C[C@]1(O)C[C@@H](c2nc(-c3ccc4ccc(-c5ccccc5)nc4c3)c3c(N)nccn32)C1` [Linsitinib] (10000 nM) to `Cc1ccc([N+](=O)[O-])cc1S(=O)(=O)N(C)/N=C/c1cnc2ccc(Br)cn12` [PIK-75] (10000 nM), the normalised response falls from 59.2% to 2.17%.

tested on: DU-4475; test: as above; conditions: incubation time: 72 h
Procedure: as §1

Going from `CC1(C)CCC(CN2CCN(c3ccc(C(=O)NS(=O)(=O)c4ccc(NCC5CCOCC5)c([N+](=O)[O-])c4)c(Oc4cnc5[nH]ccc5c4)c3)CC2)=C(c2ccc(Cl)cc2)C1` [ABT-199] (10000 nM) to `CC(=O)c1c(C)c2cnc(Nc3ccc(N4CCNCC4)cn3)nc2n(C2CCCC2)c1=O` [Palbociclib] (10000 nM), the normalised response rises from 86.2% to 86.9%.

First: CC(=O)N(O)CCCCCNC(=O)CCC(=O)N(O)CCCCCNC(=O)CCC(=O)N(O)CCCCCN [Deferoxamine] (10000 nM)
Second: C[C@]12CC[C@@H]3c4ccc(OC(=O)N(CCCl)CCCl)cc4CC[C@H]3[C@@H]1CC[C@@H]2O [Estramustine] (10000 nM)
The normalised response of the first is lower: 18.3% for the first, 85.5% for the second.

Going from `C[C@]1(O)C[C@@H](c2nc(-c3ccc4ccc(-c5ccccc5)nc4c3)c3c(N)nccn32)C1` [Linsitinib] (10000 nM) to `Cc1ccc([N+](=O)[O-])cc1S(=O)(=O)N(C)/N=C/c1cnc2ccc(Br)cn12` [PIK-75] (10000 nM), the normalised response falls from 85.5% to 1.22%.

tested on: HDQ-P1; test: as above; conditions: incubation time: 72 h
Procedure: as §1

Compared with `CC1(C)CCC(CN2CCN(c3ccc(C(=O)NS(=O)(=O)c4ccc(NCC5CCOCC5)c([N+](=O)[O-])c4)c(Oc4cnc5[nH]ccc5c4)c3)CC2)=C(c2ccc(Cl)cc2)C1` [ABT-199] (10000 nM), `CC(=O)c1c(C)c2cnc(Nc3ccc(N4CCNCC4)cn3)nc2n(C2CCCC2)c1=O` [Palbociclib] (10000 nM) is lower in normalised response: 90.8% for the first, 86.3% for the second.

Compared with `CC(=O)N(O)CCCCCNC(=O)CCC(=O)N(O)CCCCCNC(=O)CCC(=O)N(O)CCCCCN` [Deferoxamine] (10000 nM), `C[C@]12CC[C@@H]3c4ccc(OC(=O)N(CCCl)CCCl)cc4CC[C@H]3[C@@H]1CC[C@@H]2O` [Estramustine] (10000 nM) is higher in normalised response: 64.6% for the first, 105% for the second.

Compared with `C[C@]1(O)C[C@@H](c2nc(-c3ccc4ccc(-c5ccccc5)nc4c3)c3c(N)nccn32)C1` [Linsitinib] (10000 nM), `Cc1ccc([N+](=O)[O-])cc1S(=O)(=O)N(C)/N=C/c1cnc2ccc(Br)cn12` [PIK-75] (10000 nM) is lower in normalised response: 53.5% for the first, 17.4% for the second.

tested on: BT-474; test: as above; conditions: incubation time: 72 h
Procedure: as §1

First: CC1(C)CCC(CN2CCN(c3ccc(C(=O)NS(=O)(=O)c4ccc(NCC5CCOCC5)c([N+](=O)[O-])c4)c(Oc4cnc5[nH]ccc5c4)c3)CC2)=C(c2ccc(Cl)cc2)C1 [ABT-199] (10000 nM)
Second: CC(=O)c1c(C)c2cnc(Nc3ccc(N4CCNCC4)cn3)nc2n(C2CCCC2)c1=O [Palbociclib] (10000 nM)
The normalised response of the first is higher: 70.2% for the first, 69.7% for the second.

First: CC(=O)N(O)CCCCCNC(=O)CCC(=O)N(O)CCCCCNC(=O)CCC(=O)N(O)CCCCCN [Deferoxamine] (10000 nM)
Second: C[C@]12CC[C@@H]3c4ccc(OC(=O)N(CCCl)CCCl)cc4CC[C@H]3[C@@H]1CC[C@@H]2O [Estramustine] (10000 nM)
The normalised response of the first is lower: 76% for the first, 95% for the second.

First: C[C@]1(O)C[C@@H](c2nc(-c3ccc4ccc(-c5ccccc5)nc4c3)c3c(N)nccn32)C1 [Linsitinib] (10000 nM)
Second: Cc1ccc([N+](=O)[O-])cc1S(=O)(=O)N(C)/N=C/c1cnc2ccc(Br)cn12 [PIK-75] (10000 nM)
The normalised response of the first is higher: 68.8% for the first, 8.5% for the second.

tested on: MDA-MB-231; test: as above; conditions: incubation time: 72 h
Procedure: as §1

First: CC1(C)CCC(CN2CCN(c3ccc(C(=O)NS(=O)(=O)c4ccc(NCC5CCOCC5)c([N+](=O)[O-])c4)c(Oc4cnc5[nH]ccc5c4)c3)CC2)=C(c2ccc(Cl)cc2)C1 [ABT-199] (10000 nM)
Second: CC(=O)c1c(C)c2cnc(Nc3ccc(N4CCNCC4)cn3)nc2n(C2CCCC2)c1=O [Palbociclib] (10000 nM)
The normalised response of the first is lower: 66.3% for the first, 84.3% for the second.

Compared with `CC(=O)N(O)CCCCCNC(=O)CCC(=O)N(O)CCCCCNC(=O)CCC(=O)N(O)CCCCCN` [Deferoxamine] (10000 nM), `C[C@]12CC[C@@H]3c4ccc(OC(=O)N(CCCl)CCCl)cc4CC[C@H]3[C@@H]1CC[C@@H]2O` [Estramustine] (10000 nM) is higher in normalised response: 71.8% for the first, 96.6% for the second.

Going from `C[C@]1(O)C[C@@H](c2nc(-c3ccc4ccc(-c5ccccc5)nc4c3)c3c(N)nccn32)C1` [Linsitinib] (10000 nM) to `Cc1ccc([N+](=O)[O-])cc1S(=O)(=O)N(C)/N=C/c1cnc2ccc(Br)cn12` [PIK-75] (10000 nM), the normalised response falls from 77.2% to 1.78%.

tested on: CAL-51; test: as above; conditions: incubation time: 72 h
Procedure: as §1

First: CC1(C)CCC(CN2CCN(c3ccc(C(=O)NS(=O)(=O)c4ccc(NCC5CCOCC5)c([N+](=O)[O-])c4)c(Oc4cnc5[nH]ccc5c4)c3)CC2)=C(c2ccc(Cl)cc2)C1 [ABT-199] (10000 nM)
Second: C[C@]1(O)C[C@@H](c2nc(-c3ccc4ccc(-c5ccccc5)nc4c3)c3c(N)nccn32)C1 [Linsitinib] (10000 nM)
The normalised response of the first is lower: 119% for the first, 126% for the second.

First: CC(=O)N(O)CCCCCNC(=O)CCC(=O)N(O)CCCCCNC(=O)CCC(=O)N(O)CCCCCN [Deferoxamine] (10000 nM)
Second: C[C@]12CC[C@@H]3c4ccc(OC(=O)N(CCCl)CCCl)cc4CC[C@H]3[C@@H]1CC[C@@H]2O [Estramustine] (10000 nM)
The normalised response of the first is lower: 37.9% for the first, 93.3% for the second.

In the case of `Cc1ccc([N+](=O)[O-])cc1S(=O)(=O)N(C)/N=C/c1cnc2ccc(Br)cn12` [PIK-75] (10000 nM), the normalised response is reported as 5.22%.

Source: the supplement of paper PMC4862054
